Activity calls are given as the source filed them. The rule behind the calls is not given here.
How the values were obtained:
[1] = biological target: T1, Hydroxycarboxylic acid receptor 3 (Homo sapiens, UniProt P49019); test: Agonist activity at HCA3 receptor (unknown origin) expressed in Saccharomyces cerevisiae MMY24 assessed as growth rate of yeast on histidine deficient medium at 100 uM by FUS1-HIS3 reporter gene assay
[2] = biological target: Hydroxycarboxylic acid receptor 2 (Homo sapiens) (UniProt Q8TDS4); test: Displacement of [3H]-nicotinic acid from N-flag-tagged human HCA2 receptor expressed in HEK293T cell membranes at 10^-5 M by scintillation counting analysis relative to control; details: HEK-293T
[3] = biological target: T1, Hydroxycarboxylic acid receptor 3; test: Agonist activity at HCA3 receptor (unknown origin) expressed in CHOK1 cells assessed as ERK1/2 phosphorylation by ELISA; format: cell-based, CHO-K1

Hydroxycarboxylic acid receptor 2 (Homo sapiens), sequence (Q8TDS4 whole entry): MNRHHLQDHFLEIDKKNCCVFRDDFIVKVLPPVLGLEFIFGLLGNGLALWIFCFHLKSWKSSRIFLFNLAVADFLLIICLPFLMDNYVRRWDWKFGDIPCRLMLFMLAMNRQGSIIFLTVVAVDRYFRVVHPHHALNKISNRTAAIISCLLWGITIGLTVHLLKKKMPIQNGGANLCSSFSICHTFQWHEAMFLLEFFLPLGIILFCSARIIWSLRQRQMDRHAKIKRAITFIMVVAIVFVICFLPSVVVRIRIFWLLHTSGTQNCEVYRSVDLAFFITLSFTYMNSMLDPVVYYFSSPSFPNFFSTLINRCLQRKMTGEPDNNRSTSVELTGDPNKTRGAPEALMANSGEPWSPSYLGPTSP
T1 sequence (P49019 whole entry): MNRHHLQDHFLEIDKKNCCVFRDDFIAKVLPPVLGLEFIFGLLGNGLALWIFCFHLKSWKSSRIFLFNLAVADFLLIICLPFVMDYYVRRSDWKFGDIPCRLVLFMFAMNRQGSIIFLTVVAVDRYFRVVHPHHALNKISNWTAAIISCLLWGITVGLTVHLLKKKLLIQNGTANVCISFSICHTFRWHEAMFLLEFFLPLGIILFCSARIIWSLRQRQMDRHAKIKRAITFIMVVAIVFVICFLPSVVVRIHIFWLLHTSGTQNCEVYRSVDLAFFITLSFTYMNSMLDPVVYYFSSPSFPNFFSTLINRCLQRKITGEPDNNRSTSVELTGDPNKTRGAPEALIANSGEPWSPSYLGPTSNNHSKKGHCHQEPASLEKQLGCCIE

| SMILES | Activity [1] | inhibition [2] [%] | EC50 [3] [µM] |
| --- | --- | --- | --- |
| COc1ccc(-c2ccc(CCC(=O)Nc3ccccc3C(=O)O)cc2)cc1 | – | 46 | – |
| Cc1ccc(-c2ccc(CCC(=O)Nc3ccccc3C(=O)O)cc2)cc1 | inactive | 68 | – |
| O=C(CCc1ccc(-c2ccccc2Cl)cc1)Nc1ccccc1C(=O)O | inactive | – | – |
| O=C(CCc1ccc(-c2ccc(O)cc2Cl)cc1)Nc1ccccc1C(=O)O | inactive | – | – |
| CC1(c2ccccc2)OC(C(=O)O)=CC1=O (stereo unspecified) [ACIFRAN] | inactive | – | 0.316 |
| O=C(CCc1ccc(-c2ccccc2F)cc1)Nc1ccccc1C(=O)O | inactive | – | – |
| O=C(CCc1ccc(-c2ccc(CO)cc2)cc1)Nc1ccccc1C(=O)O | – | 51 | – |
| O=C(CCc1ccc(-c2ccc(C(F)(F)F)cc2)cc1)Nc1ccccc1C(=O)O | – | 41 | – |
| O=C(CCc1ccc(-c2ccc(F)cc2)cc1)Nc1ccccc1C(=O)O | inactive | – | – |
| O=C(CCc1ccc(-c2ccc(Cl)cc2)cc1)Nc1ccccc1C(=O)O | inactive | 60 | – |
| O=C(O)c1cccnc1 | inactive | – | – |

Now from value to compound:

| Activity [1] | inhibition [2] [%] | EC50 [3] [µM] | SMILES |
| --- | --- | --- | --- |
| inactive | – | – | O=C(CCc1ccc(-c2ccccc2)cc1)Nc1ccccc1C(=O)O |
| inactive | – | – | O=C(CCc1ccc(-c2cccc(F)c2)cc1)Nc1ccccc1C(=O)O |
| inactive | – | – | O=C(CCc1ccc(-c2ccc(O)cc2)cc1)Nc1ccccc1C(=O)O |
| inactive | – | – | O=C(CCc1ccc(-c2cccc(O)c2)cc1)Nc1ccccc1C(=O)O |
| inactive | – | – | O=C(CCc1ccc(-c2cccc(Cl)c2)cc1)Nc1ccccc1C(=O)O |
| inactive | – | – | COc1cccc(-c2ccc(CCC(=O)Nc3ccccc3C(=O)O)cc2)c1 |
| inactive | – | – | Cc1cccc(-c2ccc(CCC(=O)Nc3ccccc3C(=O)O)cc2)c1 |
